Paper PMC11249637, “Interaction of the Atypical Tetracyclines Chelocardin and Amidochelocardin with Renal Drug Transporters” (ACS Pharmacology & Translational Science, 2024)

Assays:
[1] = target: T1, hOAT4 (Homo sapiens, UniProt Q9NSA0); assay: Two-point inhibition of hOAT4-mediated ES uptake in transfected HEK293 cells; type: in vitro ADME; details: ES 1 μM, 1 min; for inhibitory effect on hOAT4 (in words): 1 and 10 μM; for enhanced uptake of substrate by hOAT4: at 10 μM
T1 construct: expressed in transfected cells; host or cells: HEK293
T1 sequence (Q9NSA0 1-550): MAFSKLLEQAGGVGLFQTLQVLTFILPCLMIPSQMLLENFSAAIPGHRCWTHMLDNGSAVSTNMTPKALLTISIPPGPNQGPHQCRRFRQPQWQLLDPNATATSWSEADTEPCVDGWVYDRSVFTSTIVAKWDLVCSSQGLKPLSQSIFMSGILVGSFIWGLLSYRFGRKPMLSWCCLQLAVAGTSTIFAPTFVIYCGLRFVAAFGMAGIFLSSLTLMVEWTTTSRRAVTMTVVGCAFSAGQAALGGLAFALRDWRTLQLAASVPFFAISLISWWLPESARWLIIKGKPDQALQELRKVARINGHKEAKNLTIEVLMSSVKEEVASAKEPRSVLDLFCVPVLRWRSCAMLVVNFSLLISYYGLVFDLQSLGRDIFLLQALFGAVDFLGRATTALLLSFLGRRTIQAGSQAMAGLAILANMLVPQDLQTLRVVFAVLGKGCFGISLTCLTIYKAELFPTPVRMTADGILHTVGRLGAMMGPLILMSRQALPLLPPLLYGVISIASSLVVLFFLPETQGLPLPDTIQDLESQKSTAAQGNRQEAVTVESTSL
Method: Well-characterized mOct1-, mOct2-, mOat1-, mOat2-, mOat3-, mMate1-, hOAT1-, hOAT3-, hOAT4-, hMRP2-, mMdr1a- and mMdr1b-transfected HEK293 cells and the respective vector-transfected control HEK293 cells were used.[42],[51],[52] All HEK293 cells (transporter-transfected and vector-transfected) were cultured in DMEM (Sigma, high glucose, 10% FBS, 1% penicillin (10,000 Units/mL)/streptomycin (10 mg/mL)) at 37°C under 5% CO2 in humidified atmosphere. The cells were routinely checked for the absence of mycoplasma infection. For the preparation of HEK293 cell monolayers, 24-well plates were pretreated with a poly-D-lysine hydrobromide solution (0.1 mg/mL). Each well was coated with 0.5 mL of poly-D-lysine solution and incubated for at least 15 min. After complete removal of the solution, the plates were dried for 30 min. Cells (vector-transfected and transporter-transfected) treated with trypsin were immediately seeded into 24-well plates and cultured for 3 days before being used for transport experiments.
For the uptake assay, the growth medium was aspirated, and each well was rinsed three times with 0.5 mL of incubation buffer (HBSS supplemented with 20 mM HEPES, pH 7.4) and incubated for 20 min at 37 °C. Afterward, buffers were removed, and 200 μL of the incubation buffer containing a radiolabeled substrate and the nonlabeled CHD and CDCHD or reference inhibitor (Table S1), respectively, was added to each well and incubated at 37 °C for designated time intervals. After incubation, uptake was terminated by aspirating the reaction mixture and washing the cells three times with 0.4 mL of ice-cold incubation buffer. Cells were solubilized with 0.6 mL of 1N NaOH overnight and transferred into scintillation vials. ^3H and ^14C contents were measured after the addition of 2.5 mL of scintillator in a liquid scintillation counter.
The cellular protein amount was determined in parallel for each cell line (vector- and transporter-transfected) from six wells in a different 24-well reference plate using the Bradford method. For the two-point inhibition assays, each, CHD and CDCHD, was added in two single concentrations of 1 and 10 μM to characterize their inhibitory potential. Incubation was terminated after 1 min. All experiments were conducted in triplicate for every transporter.
The ES incubation buffer contained ^3H-ES and nonlabeled ES in a final concentration of 1 μM. Inhibition of hOAT4-mediated ES uptake by 10 μM BSP was performed as a control experiment.
The inhibitory effect (I(%)) was calculated according to the formula: [drawing 5] […]

[2] = system: uropathogenic E. coli; parameters: method as in PMID 38047701; details: cited from earlier work

| Compound | inhibitory effect on hOAT4 (in words) [1] | enhanced uptake of substrate by hOAT4 [1] | effect in ascending urinary tract infection model (in words) [2] |
| --- | --- | --- | --- |
| Cc1ccc2c(C)c3c(c(O)c2c1O)C(=O)[C@@]1(O)C(=O)C(C(N)=O)=C(O)[C@@H](N)[C@H]1C3 [CDCHD, amidochelocardin] | No inhibitory effect | up to 40% | pronounced effects |
| CC(=O)C1=C(O)[C@@H](N)[C@H]2Cc3c(c(O)c4c(O)c(C)ccc4c3C)C(=O)[C@@]2(O)C1=O [CHD, chelocardin] | No inhibitory effect | up to 40% | pronounced effects |
